According to patent US20050182002A1, “Agents which interact with a serotonin transporter for the treatment of cancer” (priority 2002, published 2005):
Where two headings read alike, the source gives them in different places.

What was measured:
Format in all cases: cell-based
[1] = system: L3055 cells; test: Caspase activity (FAM-VAD-FMK, FACS); conditions: for effect on number of cells showing caspase activity (in words): single dose for 24 hours, fluoxetine 10 μM, paroxetine 10 μM, citalopram 100 μM
Procedure: Caspase activity was detected using the CaspaTag Caspase Activity Kit (Intergen, Oxford, UK). Cells cultured under the conditions indicated below were harvested into 300 μl of culture medium at a cell density of 10^6cells/ml, followed by the addition of […] of a 30×working solution of FAM-VAD-FMK (a carboxy fluorescent tagged caspase inhibitor) (Intergen Co., USA). Cells were then incubated for 1 hr at 37° C. under 5% CO2 while protecting the tubes from light. At the end of the incubation, they were washed twice in 2 ml of 1×washing buffer, followed by addition of 2 μl of PI to distinguish dead cells from live cells, then analysed on an EPICS XL-MCL flow cytometer or by confocal microscopy. For the latter, treated cells were harvested into 300 μl of culture medium containing 10 μl of FAM-VAD-FMK before incubating for 1 hr under the conditions described above. Next, 1.5 μl of Hoechst 33342 stain was added for 5 min, and cells were washed twice in 2 ml of 1×washing buffer following the addition of 1 μl of PI.

[2] = system: Mutu III, an apoptosis resistant (group III) BL cell line; test: DNA synthesis by [3H]-thymidine incorporation in Mutu III; conditions: 125 μM 5-HT, 24 hr
Procedure: (§1) DNA synthesis was determined by measuring ^3H-thymidine ([^3H]Tdr; Amersham, UK) incorporation into cellular DNA. Cells were cultured in 200 μL of supplemented medium at densities and for times indicated below in flat-bottomed, 96-well tissue culture plates (Becton Dickinson, Oxford, U K) then pulsed for the final 4 h with 50 μl of 10 μCi/ml [^3H]Tdr before harvesting on a Skatron cell harvester (Helis Bio Ltd, Newmarket, UK).
(§2) Three other group I BL cell lines were also investigated, namely: Mutu I, Elijah, and BL2.

[3] = system: L3055 cells; test: Cell cycle analysis (propidium iodide, flow cytometry); conditions: 24 hr; each at its maximal concentration (5-HT 150 μM, fluoxetine 10 μM, anti-μ chain antibody 10 μg/ml)
Procedure: Cells cultured under conditions indicated below were harvested into 100 μl of 1×PBS followed by 400 μl cell cycle buffer containing Triton X-100 and propidium iodide and left to incubate at 4° C. for 1 hr to allow staining of DNA. The degree of fluorescence emitted by bound PI is directly proportional to the amount of DNA in each cell and was measured by flow cytometry as previously described (MacDonald I, et al. Blood (1996); 87:1147-1154). Results are expressed as percentage of viable cells residing in each phase of the cycle.

[4] = system: L3055 cells; test: Viability by FACS forward versus side light scatter
Procedure: (§3) Changes in the viability of cells cultured under conditions indicated below were quantified by assessment of forward and 90° (side) light scatter of cells as previously described (Dive C, et al. Biochimica Biophysica Acta (1992); 1133:275-285) using an EPICS XL-MCL flow cytometer (Beckman Coulter, Miami, Fla., USA). Prior to analysis, cells were harvested into polythene FACS tubes, and fixed at 4° C. in 400 μl of FACS buffer [PBS with 5% NGS and 2% Formaldehyde] (BDH/MERCK). Cells were gated in two populations (viable and dead) according to their forward and side light scatter. Viability was expressed as a percentage of the total number of cells residing in the viable and non-viable gates. Cells were also analysed according to Schuurhuis et al (Schuurhuis G J, et al. Exp. Haematol. (1997); 25:754-759) in order to assess the percentages within treated populations of those that were viable, apoptotic, or necrotic. Syto 16 was added at a concentration of 250 nM in PBS to 500,000 cells and incubated at RT for 30 min, at which time 5 μg/ml propidium iodide (PI) was added. Samples were then analysed immediately by FACS and a 2D plot generated of syto 16 fluorescence versus PI fluorescence: syto 16 is taken up only by viable cells whereas Pi exclusively enters necrotic cells—syto 16^−ve/PI^−ve cells are deemed apoptotic.

[5] = system: T-cell leukaemia line, Jurkat; test: 5-HT sensitivity of Jurkat line; conditions: not shown
[6] = system: L3055 cells; test: OxyDNA assay of oxidative damage to DNA; conditions: 6 hr; 150 μM 5-HT or 30 μM H2O2
Procedure: Oxidative damage to DNA was quantified using the OxyDNA assay (Biotrin, Dublin, Ireland). Following culture of cells under conditions indicated below, they were washed first in 1×PBS then in wash solution followed by addition of 100 μl of blocking solution with a 1 hr incubation at 37° C. On washing twice in working solution, cells were then incubated with 100 μl FITC-conjugate for 1 hr in the dark at RT before being washed twice in washing solution and once in PBS. Finally, cells were resuspended in FACS buffer and analysed on an EPICS XL-MCL flow cytometer.
While the above experiments offer evidence that oxidative stress was not the cause of 5-HT-induced apoptosis in BL cells, further more direct examination of the generation of potential reactive oxygen species (ROS) as a consequence of 5-HT uptake was undertaken. For this the OxyuDNA assay was used, which quantifies 8-oxo-7,8-dihydro-2′-deoxyguanosine (8-oxodGuo) residues that are generated as a result of oxidative damage to DNA (see methods section 1.1.8 above).

[7] = system: L3055 BL cells; test: DNA synthesis by [3H]-thymidine incorporation in L3055 cells; conditions: for inhibition at 50 µM: L3055, 5-HT 50 μM; for effect on DNA synthesis (in words): single dose, range of concentrations, [3H]-thymidine incorporation at 24 hr; for influence of pre-treatment on 5-HT-dependent inhibition of DNA synthesis (in words): cells pre-treated with agent before 5-HT
Procedure: as §1

[8] = system: L3055 cells; test: Mitochondrial depolarisation with JC-1 dye; conditions: following exposure to 5-HT; not shown
Procedure: Apoptosis was assessed by staining cells with acridine orange and visualising nuclear morphology exactly as described previously (Gordon J, et al. Cell Death. Diff. (2000); 7:785-794). Viable cells display a homogeneous chromatin-staining pattern, whereas apoptotic cells characteristically show condensed and fragmented chromatin. Mitochondrial depolarisation was assessed using the JC-1 cationic dye. Cells were incubated with 10 μM of JC-1 for 30 min before being visualised on a LSM 510 confocal microscope (Zeiss, Germany). […] Mitochondrial depolarisation is indicated by a decrease in the red/green fluorescence ratio.

[9] = system: L3055 cells; test: Syto 16 / propidium iodide staining (viable, apoptotic, necrotic); conditions: increasing concentrations, 24 hr
Procedure: as §3

[10] = system: group I BL cell lines Mutu I, Elijah, and BL2; test: DNA synthesis by [3H]-thymidine incorporation in other group I BL cell lines; conditions: 125 μM 5-HT, 24 hr
Procedure: as §1, §2

[11] = system: Bcl-2 transfected BL cell line; test: Viability (FACS light scatter) of Bcl-2 transfected BL cell line
Procedure: Group I Burkitt's lymphoma cell lines L3055 (EBV^neg), BL2 (EBV^neg), Elijah (EBV^pos), and MUTU I (EBV^pos) were maintained in early passage as described previously (Baker M P, Eliopoulos E, Young L S, Armitage R J, Gregory C D, Gordon J. Blood (1998); 92:2830-2843). The late passage group III BL line MUTU III (EBV^pos) was also used with all cells cultured in RPMI 1640 medium supplemented with 10% Serum Supreme (BioWhittaker, Wokingham, UK), 2 mM glutamine, 100 IU/ml penicillin and 100 μg/ml streptomycin. […]
Changes in the viability of cells cultured under conditions indicated below were quantified by assessment of forward and 90° (side) light scatter of cells as previously described (Dive C, et al. Biochimica Biophysica Acta (1992); 1133:275-285) using an EPICS XL-MCL flow cytometer (Beckman Coulter, Miami, Fla., USA). […] Viability was expressed as a percentage of the total number of cells residing in the viable and non-viable gates. Cells were also analysed according to Schuurhuis et al (Schuurhuis G J, et al. Exp. Haematol. (1997); 25:754-759) in order to assess the percentages within treated populations of those that were viable, apoptotic, or necrotic. […]

[12] = system: L3055 cells; test: Intracellular free Ca2+; conditions: data not shown
Excerpt: The increase in intracellular free Ca^2+ is known to be an important step in the induction of apoptosis.

With NCCc1c[nH]c2ccc(O)cc12 [Example 5-HT, Serotonin] the “% caspase activation (6 h)” value ([1]; 5-HT 150 μM, fluoxetine 5 μM, paroxetine 2 μM, citalopram 10 μM, means ± S.E.M. of 3, control 27.3 ± 1.20) was 58.3 ± 2.03%, the “percentage of cells showing caspase activity” value ([1]; 6 hr 5-HT treatment, background level 29%) was 59% and the “effect on DNA synthesis (in words)” value [2] was “only marginally decreased DNA synthesis”. The “cell cycle status (in words)” value [3] was “accumulation of arresting cells in the G0/G1 compartment”, the “cells with light scatter characteristics of dead cells (in words)” value ([4]; 1 to 150 μM, 24 hr) was “dramatic concentration-dependent increase in the number of L3055 cells acquiring light scatter characteristics of dead cells” and the viability at 150 µM ([4]; L3055, 24 h, read-out: % viable cells (24 h)) was 21.3 ± 8.65%. The “sensitivity to 5-HT actions (in words)” value [5] was “insensitive”, the “level of oxidatively damaged DNA (8-oxoguanosine residues) (in words)” value [6] was “no increase in the level of oxidatively damaged DNA” and the “effect on level of DNA synthesis (in words)” value ([7]; 1 μM 5-HT, very early passage, lower cell numbers, data not shown) was “significant reduction”. For the same compound, the inhibition at 50 µM ([7]; cells plated at 2×10^4 per well) was roughly 35%, the inhibition at 50 µM ([7]; cells plated at 5×10^3 per well) was greater than 90% and the inhibition at 50 µM ([7]; cells plated at 10^4 per well) was roughly 70%. The IC50 ([7]; L3055, read-out: 5-HT required to achieve 50% inhibition of DNA synthesis, plated at 2.5×10^4 per ml (5×10^3 per well)) was roughly 5 µM, the IC50 ([7]; L3055, read-out: 5-HT required to achieve 50% inhibition of DNA synthesis, plating density 10^5 per ml (2×10^4/well)) was greater than 50 µM and the “effect on DNA synthesis (in words)” value [7] was “caused a reduction in DNA synthesis in a concentration-dependent manner”. The “mitochondrial membrane potential (in words)” value [8] was “loss of mitochondrial membrane potential”, the “number of viable cells (syto 16+ve/PI−ve) (in words)” value [9] was “decreased in a concentration-dependent manner” and the “effect on DNA synthesis (in words)” value [10] was “substantial decrease in DNA synthesis”.
In the case of OO [Example H2O2, H2O2], the “level of oxidatively damaged DNA (8-oxoguanosine residues) (in words)” value [6] is reported as “large increase in the level of 8-oxoguanosine residues generated”.
In the case of CCN(CC)CCOC(=O)c1cc(Cl)c(N)cc1OC [SDZ205-557], the “influence of pre-treatment on 5-HT-dependent inhibition of DNA synthesis (in words)” value [7] is reported as “failed to influence the ability of 5-HT to inhibit DNA synthesis”.
With C#CCN(C)CCCOc1ccc(Cl)cc1Cl [clorgyline] the “influence of pre-treatment on 5-HT-dependent inhibition of DNA synthesis (in words)” value [7] was “the same outcome was observed”.
In the case of C#CCN(C)[C@H](C)Cc1ccccc1 [deprenyl], the “influence of pre-treatment on 5-HT-dependent inhibition of DNA synthesis (in words)” value [7] is reported as “the same outcome was observed”.
With CN(C)CCCN1c2ccccc2CCc2ccccc21 [imipramine] the “effect on number of cells showing caspase activity (in words)” value [1] was “significant effect on the number of cells exhibiting caspase activity”, the “survival (live cells)” value ([4]; native cell line (panel I, FIG. 26)) was 30% and the “cell killing in Bcl-2 transfected versus native BL cell line (in words)” value ([11]; 24 hrs) was “greatly reduced”. The “survival (live cells)” value ([11]; Bcl-2 transfected BL cell line (panel II, FIG. 26)) was 91% and the “effect on DNA synthesis (in words)” value [7] was “dose dependant effect”.
C#CCN(C)Cc1ccccc1 [pargyline] was tested, and the “effect of agent by itself on DNA synthesis (in words)” value ([7]; 100 μM pargyline, no 5-HT) was “no deleterious effect by itself” and the “influence of pre-treatment on 5-HT-dependent inhibition of DNA synthesis (in words)” value [7] was “failed to influence 5-HT-induced cessation of DNA synthesis”.
Fc1ccc([C@@H]2CCNC[C@H]2COc2ccc3c(c2)OCO3)cc1 [paroxetine] was tested, and the “effect on number of cells showing caspase activity (in words)” value [1] was “significant effect on the numbers of cells showing caspase activity”, the “basal Ca2+ (in words)” value [12] was “increase in basal Ca^2+” and the “influence of pre-treatment on 5-HT-dependent inhibition of DNA synthesis (in words)” value [7] was “substantially reversed”. The “effect on DNA synthesis (in words)” value [7] was “dose dependent inhibitory effect”.
